This note sets out measurements from PMC7508748, “Active tyrosine phenol-lyase aggregates induced by terminally attached functional peptides in Escherichia coli” (Journal of Industrial Microbiology & Biotechnology, 2020).

The structures appear in SMILES notation.

What all share (assay): Lineweaver-Burk, initial rates
Holding throughout (format): biochemical
What all share (settings): 20 °C, PLP 30 µM, 0.1-6 mM L-DOPA

The subject of assay [1] is TPL-ELP10.
Assay [2] has as its system TPL-18A. The text has this: Lineweaver-Burk, initial rates on TPL-18A | The Vmax of TPL-DKL6, TPL-ELP10, TPL-EAK16, TPL-18A, and TPL-GFIL16 was higher
The test system of assay [3] is TPL-GFIL16.
Assay [4] relates to T1, TPL.
T1 construct: 6xHis tag kept, pET28a, E. coli BL21(DE3) host, His-Trap purified; 52 kDa; tetramer

Assay [5] has as its system TPL-EAK16.
For assay [6], the system named is TPL-DKL6.

What is called Km is the substrate concentration at which the rate is half of its maximum. Consider `N[C@@H](Cc1ccc(O)c(O)c1)C(=O)O` [L-DOPA], for which the Km in assay [1] amounted to 2680 ± 129 µM; in assay [2], 2180 ± 356 µM; in assay [3], 2220 ± 14 µM; in assay [4] it was 2190 µM; in assay [5], 2360 ± 26 µM; in assay [6], 2320 ± 504 µM.
